Patent US20170008888A1 (KYORIN PHARMACEUTICAL CO., LTD., priority 2014, published 2017)

How the values were obtained:
[1] = biological target: T1, BRPF3 (Homo sapiens, UniProt Q9ULD4); assay: Bromodomain binding assay: BRPF3
T1 construct: T7 phage strains displaying bromodomains were grown in parallel; made in house; host or cells: E. coli host derived from BL21, infected with T7 phage
Description: (§1) T7 phage strains displaying bromodomains were grown in parallel in 24-well blocks in an E. coli host derived from the BL21 strain. E. coli were grown to log-phase and infected with T7 phage from a frozen stock (multiplicity of infection=0.4) and incubated with shaking at 32° C. until lysis (90-150 minutes). The lysates were centrifuged (5,000×g) and filtered (0.2 μm) to remove cell debris. […] The liganded beads were blocked with excess biotin and washed with blocking buffer (SeaBlock (Pierce), 1% BSA, 0.05 Tween 20, 1 mM DTT) to remove unbound ligand and to reduce non-specific phage binding. […] Test compounds (T62 and 46) were prepared as 1000× stocks in 100% DMSO and subsequently diluted 1:10 in monoethylene glycol (MEG) to create stocks at 100× the screening concentration (resulting stock solution is 10% DMSO/90% MEG). The compounds were then diluted directly into the assays such that the final concentration of DMSO and MEG were 0.1% and 0.9%, respectively. All reactions were performed in polystyrene 96-well plates in a final volume of 0.135 ml. […] The bromodomain concentration in the eluates was measured by qPCR. Compounds were assayed for binding activity against a panel of 40 bromodomain-containing proteins.

[2] = biological target: T2, panel of 40 bromodomain-containing proteins (Homo sapiens, UniProt Q09472); assay: Bromodomain binding assay (T7 phage, qPCR): further proteins of the panel; conditions: EP300
T2 construct: T7 phage strains displaying bromodomains were grown in parallel; made in house; host or cells: E. coli host derived from BL21, infected with T7 phage
T2 sequence (Q09472 1045-1161): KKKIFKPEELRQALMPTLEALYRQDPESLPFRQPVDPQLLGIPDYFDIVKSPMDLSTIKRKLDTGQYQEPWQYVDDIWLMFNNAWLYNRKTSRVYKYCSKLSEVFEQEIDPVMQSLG
Description: as §1

[3] = biological target: T3, panel of 40 bromodomain-containing proteins (Homo sapiens, UniProt Q92793); assay: as above; conditions: CREBBP
T3 construct: T7 phage strains displaying bromodomains were grown in parallel; made in house; host or cells: E. coli host derived from BL21, infected with T7 phage
T3 sequence (Q92793 1081-1197): as the sequence (Q09472 1045-1161) above, with K1R, S51N, I77V, Y97F, S102A counted along it
Description: as §1

[4] = biological target: T4, BRD7 (Homo sapiens, UniProt Q9NPI1); assay: Bromodomain binding assay: BRD7
T4 construct: T7 phage strains displaying bromodomains were grown in parallel; made in house; host or cells: E. coli host derived from BL21, infected with T7 phage
T4 sequence (Q9NPI1 131-235 limits assumed, species assumed): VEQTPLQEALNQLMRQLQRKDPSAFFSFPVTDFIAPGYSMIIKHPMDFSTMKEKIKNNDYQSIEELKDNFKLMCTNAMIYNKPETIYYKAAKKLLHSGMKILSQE
Description: as §1

[5] = biological target: T5, CECR2 (Homo sapiens, UniProt Q9BXF3); assay: Bromodomain binding assay: CECR2
T5 construct: T7 phage strains displaying bromodomains were grown in parallel; made in house; host or cells: E. coli host derived from BL21, infected with T7 phage
T5 sequence (Q9BXF3 434-538 limits assumed, species assumed): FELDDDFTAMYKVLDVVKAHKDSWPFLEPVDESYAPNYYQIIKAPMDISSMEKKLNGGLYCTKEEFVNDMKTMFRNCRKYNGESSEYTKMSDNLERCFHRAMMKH
Description: as §1

T1 sequence (Q9ULD4 589-693 limits assumed, species assumed): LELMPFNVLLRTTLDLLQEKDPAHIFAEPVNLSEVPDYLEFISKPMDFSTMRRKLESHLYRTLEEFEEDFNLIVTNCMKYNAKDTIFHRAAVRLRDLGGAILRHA

Compound | Kd [1] [µM] | Kd [2] [nM] | Kd [3] [nM] | Kd [4] [µM] | Kd [5] [µM]
CCOc1cc(C(=O)N[C@H]2CC[C@H](O)CC2)ccc1Nc1cc2c(cn1)N(C)C(=O)c1ccccc1N2C [Compound T62] | > 20 | 1100 | 1200 | > 20 | > 20
CCOc1cc(C(=O)N2CCC(N3CCCC3)CC2)ccc1Nc1cc2c(cn1)N(C)C(=O)c1ccccc1N2C [Compound 46, 3-(2-Ethoxy-4-(4-(pyrrolidin-1-yl)piperidine-1-carbonyl)phenylamino)-5,11-dimethyl-5H-benzo[e]pyrido[3,4-b][1,4]diazepin-10(11H)-one] | > 20 | 7500 | 3300 | > 20 | > 20
